Reference: BindingDB's records for doi:10.1021/jm00126a018 (Amherst College, 1989)

Molecular target: Chymotrypsinogen A (Bos taurus) (UniProt P00766)
Assay: Inhibition of chymotrypsin-catalyzed hydrolysis of BzTyr p-nitroanilide by compound at pH 5

## CC(=O)N[C@@H](C)C(=O)NN=CCNC(=O)c1ccccc1
  Ki: > 8 mM
